Data from patent US20100215741A1, “PHARMACEUTICAL COMPOUNDS” (priority 2009, published 2010).
Read-outs that look alike come from different tables or passages of the source.

Experiments:
CB1 receptors = target: T1, CB1 receptors (Mus musculus, UniProt P47746); assay: radioreceptor binding, displacement of [3H]-CP-55,940, CB1 (brain)
T1 construct: the complete brain (excluding the cerebellum) and the spleen were quickly dissected and kept in ice; from tissue; host or cells: mouse brain (excluding the cerebellum), membrane preparation
T1 sequence (P47746 whole entry): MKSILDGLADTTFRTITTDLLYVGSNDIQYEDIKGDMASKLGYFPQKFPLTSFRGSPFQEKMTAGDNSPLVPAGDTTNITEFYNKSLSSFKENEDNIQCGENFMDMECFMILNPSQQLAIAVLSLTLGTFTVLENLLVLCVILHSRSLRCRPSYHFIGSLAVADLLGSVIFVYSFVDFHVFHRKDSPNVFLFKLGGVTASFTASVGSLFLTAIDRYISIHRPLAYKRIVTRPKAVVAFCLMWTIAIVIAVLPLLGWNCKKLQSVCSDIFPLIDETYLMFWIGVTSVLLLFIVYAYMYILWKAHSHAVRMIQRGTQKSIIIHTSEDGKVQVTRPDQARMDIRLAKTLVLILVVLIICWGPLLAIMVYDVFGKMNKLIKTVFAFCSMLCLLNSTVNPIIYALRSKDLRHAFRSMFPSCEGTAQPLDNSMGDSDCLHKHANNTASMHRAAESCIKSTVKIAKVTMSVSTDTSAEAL
Experimental: (§1) The affinity of the compounds towards the CB1 and CB2 cannabinoidergic receptors was evaluated in vitro by radioreceptor binding studies using the following method.
(§2) The technique of the receptor binding allows to establish if, and with which affinity and specificity, a specific compound binds to a particular receptor. To evaluate the affinity of a specific compound to a particular receptor it is necessary to challenge in a particular tissue preparation wherein those specific receptors are present the compound to be tested with a radioactive labelled compound whose affinity for the same receptors is known. […] The amount of radioactivity present in the receptor-compound complex allows furthermore to stimate with great accuracy the amount of compound bound to the receptor. By said method it is therefore possible to stablish quickly the affinity of a new compound towards a specific receptor and thus to determine its pharmacological activity. With the same experimental protocol it is possible to evaluate the affinity of the compound towards other receptors and thus establish its specificity degree toward said other receptors.
(§3) The food and water were ad libitum.
(§4) The procedure adopted, based on the use of the compound [^3H]-CP-55,940 (New England Nuclear, Boston, Mass., USA), requires the use of the mouse brain as biological tissue for the evaluation of the affinity towards the CB1 receptors and of the mouse spleen for the affinity assay for the CB2 receptors.
(§5) The animals were sacrificed by cervical dislocation and the complete brain (excluding the cerebellum) and the spleen were quickly dissected and kept in ice.
(§6) The tissue was homogenized in 15 volumes (weight/-volume) of TME buffer (50 Mm Tris, 1 mM EDTA and 3 mM MgCl2, pH 7.4) by an Ultra-Turrax and subsequently centrifuged for 10 minutes at 1086×g in a centrifuge refrigerated at 4° C. The recovered supernatant was centrifuged at 45,000×g for 30 minutes at 4° C. by using a Beckman SW41 rotor and the obtained pellet was resuspended in 50 volumes of TME.
(§7) The thus obtained membranes (50-80 μg of proteins) were incubated in the presence of 1 nM of [^3H]-CP55.940 for 1 hour at 30° C. in a final volume of 0.5 ml of TME buffer containing […] (BSA). The non specific binding was measured in the presence of CP55.940 at a 1 μM concentration.
(§8) All the experiments were carried out in polypropylene test tubes pretreated with Sigma-Cote (Sigma Chemical Co. Ltd., Poole, UK) for reducing non specific binding.
(§9) In order to determine the competitive inhibition binding curves, eight different concentrations of each compound were used.
(§10) Incubation was stopped by addition of TME buffer (at 4° C.) containing 5 mg/ml of BSA, and subsequent filtration under vacuum by Whatman GFC filters pretreated with 0.5% of polyethylamine (PEI) and by using a filtering device (Brandell, Gaithersburg, Md., USA). The filters were washed 3 times with 5 ml of Tris HCl buffer (pH 7.4, 4° C.) containing 1 mg/ml of BSA and separately placed in plastic vials containing 4 ml of scintillating liquid (Ultima Gold MV, Packard).
(§11) The radioactivity present in the filters was determined by a scintillator spectrophotometer (Tricarb® 2100, Packard, Meridien, USA).
(§12) Protein determination was carried out by the Bradford method by using the protocol and the reactants supplied by Bio-Rad (Milano, Italy).

CB2 receptors = target: T2, CB2 receptors (Mus musculus, UniProt P47936); assay: radioreceptor binding, displacement of [3H]-CP-55,940, CB2 (spleen)
T2 construct: the complete brain (excluding the cerebellum) and the spleen were quickly dissected and kept in ice; from tissue; host or cells: mouse spleen, membrane preparation
T2 sequence (P47936 whole entry): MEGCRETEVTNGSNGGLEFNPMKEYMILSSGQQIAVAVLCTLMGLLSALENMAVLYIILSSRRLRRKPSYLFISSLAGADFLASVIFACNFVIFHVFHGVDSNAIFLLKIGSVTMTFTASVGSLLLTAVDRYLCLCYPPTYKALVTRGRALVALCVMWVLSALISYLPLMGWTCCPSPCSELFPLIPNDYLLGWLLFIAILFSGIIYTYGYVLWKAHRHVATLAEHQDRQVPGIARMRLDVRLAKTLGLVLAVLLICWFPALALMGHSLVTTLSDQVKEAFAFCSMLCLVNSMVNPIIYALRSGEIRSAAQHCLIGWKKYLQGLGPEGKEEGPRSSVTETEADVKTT
Experimental: as §1, §2, §3, §4, §5, §6, §7, §8, §9, §10, §11, §12

[1] = mouse spleen membranes, 1 nM [3H]-CP55.940, 1 hour at 30° C., read-out: CB2 (spleen) Ki

| SMILES | melting point | Ki (CB1 receptors) | Ki (CB2 receptors; [1]) | Ki (CB2 receptors) |
| --- | --- | --- | --- | --- |
| Cc1ccc2c(c1)oc1c(C(N)=O)nn(-c3ccc(Cl)cc3Cl)c12 [1-(2,4-dichlorophenyl)-6-methyl-1H-benzofuro [3,2-c]pyrazole-3-carboxamide] | 185 to 186 °C |  |  |  |
| CC1(C)C2CCC(CNC(=O)c3nn(-c4ccc(Cl)cc4Cl)c4c3CCCc3ccc(Cl)cc3-4)C1C2 (stereo not shown) [Example 3.1, N-myrtanyl-9-chloro-1-(2′,4′-dichlorophenyl)-1,4,5,6-tetrahydrobenzo[6,7]cyclohepta[1,2-c]pyrazol-3-carboxamide] |  | 20 ± 5 nM | 23.3 ± 1.6 nM |  |
| CC1(C)C2CCC(CNC(=O)c3nn(-c4ccc(Cl)cc4Cl)c4c3CCOc3cc(Cl)ccc3-4)C1C2 (stereo not shown) [Example 3.3, N-myrtanyl-8-chloro-1-(2′,4′-dichlorophenyl)-4,5-dihydrobenzo-1H-6oxa-cyclohepta[1,2-c]pyrazol-3-carboxamide] | 142 to 143 °C | 21.7 ± 3 nM | 325 ± 38 nM |  |
| CC1(C)C2CCC(CNC(=O)c3nn(-c4ccc(Cl)cc4Cl)c4c3CCCc3cc(Cl)ccc3-4)C1C2 (stereo not shown) [Example 3.4, N-myrtanyl-8-chloro-1-(2′,4′-dichlorophenyl)-1,4,5,6-tetrahydrobenzo[6,7]cyclohepta[1,2-c]pyrazol-3-carboxamide] |  | 2.6 ± 0.17 nM | 19.6 ± 1.5 nM |  |
| Cc1ccc2c(c1)Cc1c(C(=O)NCC3CCC4CC3C4(C)C)nn(-c3ccc(Cl)cc3Cl)c1-2 (stereo not shown) [Example 3.15, N-myrtanyl-1-(2′,4′-dichlorophenyl)-6-methyl-1,4-dihydroindeno[1,2-c]pyrazole-3-carboxamide] |  | 350 ± 76 nM | 2.3 ± 0.5 nM |  |
| Cc1ccc2c(c1)oc1c(C(=O)NN3CCCCC3)nn(-c3ccc(Cl)cc3Cl)c12 [Example 3.20, N-piperidinyl-1-(2,4-dichlorophenyl)-6-methyl-1H-benzofuro[3,2-c]pyrazole-3-carboxamide] | 155 to 157 °C | 1790 ± 330 nM |  | 12.9 ± 1.1 nM |
| Cc1ccc2c(c1)oc1c(C(=O)NN3CCCC3)nn(-c3ccc(Cl)cc3Cl)c12 [Example 3.21, N-pyrrolidinyl-1-(2,4-dichlorophenyl)-6-methyl-1H-benzofuro[3,2-c]pyrazole-3-carboxamide] | 90 to 92 °C | 2720 ± 652 nM |  | 29.5 ± 8 nM |
| Cc1ccc2c(c1)oc1c(C(=O)NN3CCOCC3)nn(-c3ccc(Cl)cc3Cl)c12 [Example 3.22, N-morpholin-4-yl-1-(2,4-dichlorophenyl)-6-methyl-1H-benzofuro[3,2-c]pyrazole-3-carboxamide] | 178 to 180 °C | 4060 ± 64 nM |  | 37.7 ± 6.3 nM |
| Cc1ccc2c(c1)oc1c(C(=O)NC3CCCCC3)nn(-c3ccc(Cl)cc3Cl)c12 [Example 3.23, N-cyclohexyl-1-(2,4-dichlorophenyl)-6-methyl-1H-benzofuro[3,2-c]pyrazole-3-carboxamide] | 140 to 142 °C | 1250 ± 129 nM |  | 15.6 ± 4 nM |
| Cc1ccc2c(c1)oc1c(C(=O)N[C@H]3C[C@@H](C)CC[C@@H]3C(C)C)nn(-c3ccc(Cl)cc3Cl)c12 [Example 3.24, N-2-isopropyl-5-methyl-cyclohexyl-1-(2,4-dichlorophenyl)-6-methyl-1H-benzofuro[3,2-c]pyrazole-3-carboxamide] | 70 to 72 °C | 38.2 ± 6 nM | 2.3 ± 0.3 nM |  |
| Cc1ccc2c(c1)oc1c(C(=O)N[C@@H]3C[C@H]4C[C@@H]([C@@H]3C)C4(C)C)nn(-c3ccc(Cl)cc3Cl)c12 [Example 3.25, N-2,6,6-trimethyl-bicyclo[3.1.1]hept-3-yl-1-(2,4-dichlorophenyl)-6-methyl-1H-benzofuro[3,2-c]pyrazole-3-carboxamide] | 85 to 87 °C | 2400 ± 629 nM |  | 3.7 ± 0.3 nM |
| Cc1ccc2c(c1)oc1c(C(=O)NC3C4(C)CCC(C4)C3(C)C)nn(-c3ccc(Cl)cc3Cl)c12 (stereo not shown) [Example 3.26, N-1,3,3-trimethyl-bicyclo[2.2.1]hept-2-yl-1-(2,4-dichlorophenyl)-6-methyl-1H-benzofuro[3,2-c]pyrazole-3-carboxamide] | 84 to 86 °C | 257 ± 7 nM |  | 2.5 ± 0.3 nM |
| Cc1ccc2c(c1)oc1c(C(=O)NC3CC4CCC3(C)C4(C)C)nn(-c3ccc(Cl)cc3Cl)c12 (stereo not shown) [Example 3.27, N-1,7,7-trimethyl-bicyclo[2.2.1]hept-2-yl-1-(2,4-dichlorophenyl)-6-methyl-1H-benzofuro[3,2-c]pyrazole-3-carboxamide] | 78 to 80 °C | 469 ± 64 nM |  | 3.5 ± 0.6 nM |
| Cc1ccc2c(c1)oc1c(C(=O)NC34CC5CC(CC(C5)C3)C4)nn(-c3ccc(Cl)cc3Cl)c12 [Example 3.28, N-adamantan-1yl-1-(2,4-dichlorophenyl)-6-methyl-1H-benzofuro[3,2-c]pyrazole-3-carboxamide] | 210 to 212 °C | 363 ± 92 nM |  | 28 ± 6.6 nM |
| Cc1ccc2c(c1)oc1c(C(=O)NC3C4CC5CC(C4)CC3C5)nn(-c3ccc(Cl)cc3Cl)c12 (stereo not shown) [Example 3.29, N-adamantan-2-yl-1-(2,4-dichlorophenyl)-6-methyl-1H-benzofuro[3,2-c]pyrazole-3-carboxamide] | 209 to 211 °C | 537 ± 132 nM |  | 17.5 ± 0.9 nM |
